Data from patent US20230174484A1, “ANTAGONISTS OF GPR39 PROTEIN” (Oregon Health & Science University, priority 2020, published 2023).

Target: T1, human GPR39 receptor (Homo sapiens, UniProt O43194)
T1 construct: PC3 Cells, Expressing the Endogenous Human GPR39 Receptor; endogenous in cells; host or cells: PC3 (human prostate adenocarcinoma) cells
T1 sequence (O43194 1-453): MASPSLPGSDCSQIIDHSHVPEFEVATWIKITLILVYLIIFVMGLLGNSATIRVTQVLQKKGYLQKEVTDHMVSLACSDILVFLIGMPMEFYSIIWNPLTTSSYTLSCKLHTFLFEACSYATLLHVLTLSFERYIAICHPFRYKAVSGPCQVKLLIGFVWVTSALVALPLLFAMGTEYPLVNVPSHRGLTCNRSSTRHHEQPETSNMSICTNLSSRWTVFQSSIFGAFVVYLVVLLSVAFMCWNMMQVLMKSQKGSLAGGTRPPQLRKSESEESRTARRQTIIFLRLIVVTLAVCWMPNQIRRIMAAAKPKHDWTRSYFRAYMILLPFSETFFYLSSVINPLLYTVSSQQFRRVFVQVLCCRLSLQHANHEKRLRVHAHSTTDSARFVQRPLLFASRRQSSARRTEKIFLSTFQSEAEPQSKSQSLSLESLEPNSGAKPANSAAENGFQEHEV
Assay: Measurement of intracellular calcium response in PC3 cells (FLIPR), antagonism of the C3 agonist response
Assay type: cell-based
Conditions: functional pKi (modified Cheng-Prusoff), inhibition of the C3 (TC-G 1008) response at EC90, 30 μM ZnCl2, read-out: fpKi activity
Outline: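 PC3 cells with endogenous human GPR39 were loaded with Calcium-6 and read by FLIPR, with compounds tested in buffer with 30 μM final ZnCl2 and 0.32% DMSO. Peak Ca2+ signal was scored as % inhibition of the EC90 C3 response, fitted by four-parameter logistic. Functional pKi was derived via the modified Cheng-Prusoff equation.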

Ki | SMILES
≤ 50.1 nM | Cc1nnc(-c2ccc(C(=O)N3CCC(F)(F)CC3)c(-n3ccc(C4CC4)n3)c2)[nH]1 [Example 209, [2-(3-cyclopropylpyrazol-1-yl)-4-(5-methyl-4H-1,2,4-triazol-3-yl)phenyl]-(4,4-difluoropiperidin-1-yl)methanone]
63.1 to 251 nM | Cc1nnc(-c2ccc(C(=O)N3CCN(C)CC3c3ccccc3)c(N3CCCC3)c2)[nH]1 (racemic) [Example 150c, (4-methyl-2-phenylpiperazin-1-yl)-[4-(5-methyl-4H-1,2,4-triazol-3-yl)-2-pyrrolidin-1-ylphenyl]methanone]
316 to 1000 nM | CCCN1CCN(C(=O)c2ccc(NC(=O)C3CC3(F)F)cc2N2CCCCCC2)CC1 (centres unmarked) [Example 92]
≤ 50.1 nM | CN1CCN(C(=O)c2ccc(NC(=O)C3CC3)cc2N2CCCC2)C(c2cccs2)C1 (single isomer, unassigned) [Example 86b, N-[4-(4-methyl-2-thiophen-2-ylpiperazine-1-carbonyl)-3-pyrrolidin-1-ylphenyl]cyclopropanecarboxamide]
1260 to 6310 nM | CN1CCN(C(=O)c2ccc(NC(=O)C3CC3)cc2N2CCCC2)C(c2ccccc2F)C1 (single isomer, unassigned) [Example 84b, N-[4-[2-(2-fluorophenyl)-4-methylpiperazine-1-carbonyl]-3-pyrrolidin-1-ylphenyl]cyclopropanecarboxamide]
63.1 to 251 nM | O=C(Nc1ccc(C(=O)N2CCC3(CC2)CC3)c(N2CCCC2)c1)C1CC1 [Example 220, N-[4-(6-azaspiro[2.5]octane-6-carbonyl)-3-pyrrolidin-1-ylphenyl]cyclopropanecarboxamide]
1260 to 6310 nM | CN1CCN(C(=O)c2ccc(NC(=O)C3CC3)cc2N2CCCCCC2)C(c2cccs2)C1 (single isomer, unassigned) [Example 69a, N-(3-(azepan-1-yl)-4-(4-methyl-2-(thiophen-2-yl)piperazine-1-carbonyl)phenyl) cyclopropane carboxamide]
≤ 50.1 nM | CN1CCN(C(=O)c2ccc(NC(=O)C3CC3)cc2N2CCC(C(F)(F)F)C2)C(c2ccccc2)C1 (single isomer, unassigned) [Example 199a, (2S, 3R) or (2R, 3S) or (2R, 3R) or (2S, 3S) N-[4-(4-methyl-2-phenylpiperazine-1-carbonyl)-3-[3-(trifluoromethyl)pyrrolidin-1-yl]phenyl]cyclopropanecarboxamide]
63.1 to 251 nM | CCCC1CCN(C(=O)c2ccc(NC(=O)C3CC3)cc2N2CCCCCC2)CC1 [Example 47, N-(3-(azepan-1-yl)-4-(4-propylpiperidine-1-carbonyl)phenyl)cyclopropanecarboxamide]
63.1 to 251 nM | CN1CCN(C(=O)c2ccc(NC(=O)C3CC3)cc2N2CCCCCC2)C(c2ccsc2)C1 (racemic) [Example 70c, N-(3-(azepan-1-yl)-4-(4-methyl-2-(thiophen-3-yl)piperazine-1-carbonyl)phenyl)cyclopropane carboxamide]
63.1 to 251 nM | O=C(Nc1ccc(C(=O)N2CCSCC2c2ccccc2)c(N2CCCC2)c1)C1CC1 (centres unmarked) [Example 58, N-[4-(3-phenylthiomorpholine-4-carbonyl)-3-pyrrolidin-1-ylphenyl]cyclopropanecarboxamide]
≤ 50.1 nM | CCCN1CCN(C(=O)c2ccc(NC(=O)C3CC3)cc2N2CCCCCC2)C(c2ccccc2)C1 (racemic) [Example 73c, N-[3-(azepan-1-yl)-4-(2-phenyl-4-propylpiperazine-1-carbonyl)phenyl]Cyclopropanecarboxamide]
63.1 to 251 nM | O=C(Nc1ccc(C(=O)N2CCS(=O)(=O)CC2)c(N2CCC(C(F)(F)F)C2)c1)C1CC1 (single isomer, unassigned) [Example 183b, N-[4-(1,1-dioxo-1,4-thiazinane-4-carbonyl)-3-[3R or 3S-(trifluoromethyl)pyrrolidin-1-yl]phenyl]cyclopropanecarboxamide]
316 to 1000 nM | O=C(Nc1ccc(C(=O)N2CCc3ccccc3C2)c(N2CCCCCC2)c1)C1CC1 [Example 21, N-(3-(azepan-1-yl)-4-(1,2,3,4-tetrahydroisoquinoline-2-carbonyl)phenyl) cyclopropanecarboxamide]
316 to 1000 nM | CCOC1CCN(C(=O)c2ccc(NC(=O)C3CC3)cc2N2CCCCCC2)CC1 [Example 48, N-(3-(azepan-1-yl)-4-(4-ethoxypiperidine-1-carbonyl)phenyl)cyclopropanecarboxamide]
316 to 1000 nM | CCCN1CCN(C(=O)c2ccc(NC(=O)CC)cc2N2CCCCCC2)CC1 [Example 94, N-(3-(azepan-1-yl)-4-(4-propylpiperazine-1-carbonyl)phenyl)propionamide]

Ki | SMILES
63.1 to 251 nM | O=C(Nc1ccc(C(=O)N2CCS(=O)(=O)CC2)c(N2CCCC(C(F)(F)F)C2)c1)C1CC1 (racemic) [Example 185c, N-[4-(1,1-dioxo-1,4-thiazinane-4-carbonyl)-3-[3-(trifluoromethyl)piperidin-1-yl]phenyl]cyclopropanecarboxamide]
316 to 1000 nM | O=C(Nc1ccc(C(=O)N2CCS(=O)(=O)CC2)c(-n2cc(C(F)(F)F)cn2)c1)C1CC1 [Example 182, N-[4-(1,1-dioxo-1,4-thiazinane-4-carbonyl)-3-[4-(trifluoromethyl)pyrazolyl]phenyl]cyclopropanecarboxamide]
63.1 to 251 nM | O=C(Nc1ccc(C(=O)N2CCC(C(F)(F)F)CC2)c(N2CCCCCC2)c1)C1CC1 [Example 38, N-(3-(azepan-1-yl)-4-(4-(trifluoromethyl)piperidine-1-carbonyl)phenyl) cyclopropanecarboxamide]
63.1 to 251 nM | O=C(Nc1ccc(C(=O)N2CCC3(CC2)COC3)c(N2CCC(C(F)(F)F)C2)c1)C1CC1 (single isomer, unassigned) [Example 213b]
1260 to 6310 nM | Cc1nnc(-c2ccc(NC(=O)C3CC3)cc2N2CCCCCC2)n1C [Example 113, N-[3-(azepan-1-yl)-4-(4,5-dimethyl-1,2,4-triazol-3-yl)phenyl]cyclopropanecarboxamide]
316 to 1000 nM | CCCN1CCN(C(=O)c2ccc(NC(=O)C3CC3)cc2N2CCCOCC2)CC1 [Example 3, N-[3-(1,4-oxazepan-4-yl)-4-(4-propylpiperazine-1-carbonyl)phenyl]cyclopropanecarboxamide]
63.1 to 251 nM | O=C(Nc1ccc(C(=O)N2CCN(Cc3ccc(F)cc3)CC2)c(N2CCCCCC2)c1)C1CC1 [Example 29, N-(3-(azepan-1-yl)-4-(4-(4-fluorobenzyl)piperazine-1-carbonyl)phenyl) Cyclopropanecarboxamide]
63.1 to 251 nM | CN1CCN(C(=O)c2ccc(NC(=O)C3CC3)nc2N2CCCC2)C(c2ccccc2)C1 (single isomer, unassigned) [Example 149a, (2R or 2S) N-[5-(4-methyl-2-phenylpiperazine-1-carbonyl)-6-pyrrolidin-1-ylpyridin-2-yl] cyclopropanecarboxamide]
63.1 to 251 nM | CN1CCN(C(=O)c2ccc(NC(=O)C3CC3)cc2N2CCCC2)C(c2cncc(Cl)c2)C1 (racemic) [Example 172, N-[4-[2-(5-chloropyridin-3-yl)-4-methylpiperazine-1-carbonyl]-3-pyrrolidin-1ylphenyl]cyclopropanecarboxamide]
63.1 to 251 nM | O=C(Nc1ccc(C(=O)N2CCN(Cc3cccc(F)c3)CC2)c(N2CCCCCC2)c1)C1CC1 [Example 26, N-(3-(azepan-1-yl)-4-(4-(3-fluorobenzyl)piperazine-1-carbonyl)phenyl) Cyclopropanecarboxamide]
63.1 to 251 nM | Cc1nnc(-c2ccc(C(=O)N3CCC(C(F)(F)F)CC3)c(N3CCCC3)c2)[nH]1 [Example 153, [4-(5-methyl-4H-1,2,4-triazol-3-yl)-2-pyrrolidin-1-ylphenyl]-[4-(trifluoromethyl)piperidin-1-yl]methanone]
≤ 50.1 nM | CN1CCN(C(=O)c2ccc(NC(=O)C3CC3)cc2N2CCCC2)C(c2cccs2)C1 (racemic) [Example 86c, N-[4-(4-methyl-2-thiophen-2-ylpiperazine-1-carbonyl)-3-pyrrolidin-1-ylphenyl]cyclopropanecarboxamide]
316 to 1000 nM | CN1CCN(C(=O)c2ccc(NC(=O)C3CC3)cc2N2CCCC2)C(c2ccccc2Cl)C1 (single isomer, unassigned) [Example 170b, (2R or 2S) N-[4-[2-(2-chlorophenyl)-4-methylpiperazine-1-carbonyl]-3-pyrrolidin-1-ylphenyl]cyclopropanecarboxamide]
1260 to 6310 nM | CN1CCN(C(=O)c2ccc(-c3nnc(C4CC4)[nH]3)cc2N2CCCC2)C(c2ccccc2)C1 (single isomer, unassigned) [Example 151b, (2R or 2S) [4-(5-cyclopropyl-4H-1,2,4-triazol-3-yl)-2-pyrrolidin-1-ylphenyl]-(4-methyl-2-phenylpiperazin-1-yl)methanone]
1260 to 6310 nM | CCCN1CCN(C(=O)c2ccc(NC(N)=O)cc2N2CCCCCC2)CC1 [Example 96, [3-(azepan-1-yl)-4-(4-propylpiperazine-1-carbonyl)phenyl]urea]
≤ 50.1 nM | CN1CCN(C(=O)c2ccc(NC(=O)C3CC3)cc2N2CCCCCC2)C(c2cccs2)C1 (single isomer, unassigned) [Example 69b, N-(3-(azepan-1-yl)-4-(4-methyl-2-(thiophen-2-yl)piperazine-1-carbonyl)phenyl) cyclopropane carboxamide]
